{"source": "patent US11078216B2", "about": "“Bisaryl amides as NRF2 activators” (GLAXOSMITHKLINE INTELLECTUAL PROPERTY DEVELOPMENT LIMITED, priority 2016, dated 2021)", "data": [{"test_system": "NRF2 (NQO1 activity as marker for NRF2 activation), BEAS-2B cells", "experiment": "BEAS-2B NQO1 MTT Assay", "type": "cell-based", "settings": "EC50 of NQO1 specific activity induction, 48 hours incubation, read-out: EC50", "how_it_was_run": "(§1)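 BEAS-2B cells were exposed to compound for 48 h at 37° C, 5% CO2, then lysed. NQO1 activity was measured kinetically by MTT reduction at 570 nm over 30 minutes; EC50 came from 3-parameter fit of Delta OD/min versus log concentration.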", "units": {"EC50": "nM"}, "values": [{"compound": "(S)-3-(1,4-Dimethyl-1H-benzo[d][1,2,3]triazol-5-yl)-3-(3-(((R)-2-ethyl-2,3-dihydropyrido[3,44][1,4]oxazepin-4(5H)-yl)methyl)-4-methylphenyl)-2,2-dimethyl-N-(pyridin-3-yl)propanamide [Example 111]", "EC50": "100 to 1000"}]}, {"test_system": "NRF2 (NQO1 activity as marker for NRF2 activation), BEAS-2B cells", "experiment": "BEAS-2B NQO1 MTT Assay", "type": "cell-based", "settings": "Homo sapiens, EC50 of NQO1 specific activity induction, 48 hours incubation, read-out: EC50", "how_it_was_run": "as §1", "units": {"EC50": "nM"}, "values": [{"compound": "CC[C@@H]1CN(Cc2cc([C@@H](c3ccc4c(nnn4CC)c3C)C(C)(C)C(=O)Nc3cnc(CN)nc3)ccc2C)S(=O)(=O)c2ccccc2O1", "note": "[Example 196, (S)—N-(2-(Aminomethyl)pyrimidin-5-yl)-3-(3-(((R)-4-ethyl-1,1-dioxido-3,4-dihydro-2H-benzo[b][1,4,5]oxathiazepin-2-yl)methyl)-4-methylphenyl)-3-(1-ethyl-4-methyl-1H-benzo[d][1,2,3]triazol-5-yl)-2,2-dimethylpropanamide]", "EC50": "100 to 1000"}, {"compound": "CC[C@@H]1CN(Cc2cc([C@@H](c3ccc4c(nnn4CC)c3C)C(C)(C)C(=O)Nc3cnc(OCC(=O)O)nc3)ccc2C)S(=O)(=O)c2ccccc2O1", "note": "[Example 197, 2-((5-((S)-3-(3-(((R)-4-Ethyl-1,1-dioxido-3,4-dihydro-2H-benzo[b][1,4,5]oxathiazepin-2-yl)methyl)-4-methylphenyl)-3-(1-ethyl-4-methyl-1H-benzo[d][1,2,3]triazol-5-yl)-2,2-dimethylpropanamido)pyrimidin-2-yl)oxy)acetic Acid]", "EC50": "10 to 100"}, {"compound": "CC[C@@H]1CN(Cc2cc([C@@H](c3ccc4c(nnn4CC)c3C)C(C)(C)C(=O)Nc3cnc(OCCN)nc3)ccc2C)S(=O)(=O)c2ccccc2O1", "note": "[Example 198, (S)—N-(2-(2-Aminoethoxy)pyrimidin-5-yl)-3-(3-(((R)-4-ethyl-1,1-dioxido-3,4-dihydro-2H-benzo[b][1,4,5]oxathiazepin-2-yl)methyl)-4-methylphenyl)-3-(1-ethyl-4-methyl-1H-benzo[d][1,2,3]triazol-5-yl)-2,2-dimethylpropanamide]", "EC50": "10 to 100"}, {"compound": "CC[C@@H]1CN(Cc2cc([C@@H](c3ccc4c(nnn4CC)c3C)C(C)(C)C(=O)Nc3cnc(OCCO)nc3)ccc2C)S(=O)(=O)c2ccccc2O1", "note": "[Example 199, (S)-3-(3-(((R)-4-Ethyl-1,1-dioxido-3,4-dihydro-2H-benzo[b][1,4,5]oxathiazepin-2-yl)methyl)-4-methylphenyl)-3-(1-ethyl-4-methyl-1H-benzo[d][1,2,3]triazol-5-yl)-N-(2-(2-hydroxyethoxy)pyrimidin-5-yl)-2,2-dimethylpropanamide]", "EC50": "10 to 100"}, {"compound": "CC[C@@H]1CN(Cc2cc([C@@H](c3ccc4c(nnn4CC)c3C)C(C)(C)C(=O)NCC(=O)O)ccc2C)S(=O)(=O)c2ccccc2O1", "note": "[Example 200, 2-((S)-3-(3-(((R)-4-ethyl-1,1-dioxido-3,4-dihydro-2H-benzo[b][1,4,5]oxathiazepin-2-yl)methyl)-4-methylphenyl)-3-(1-ethyl-4-methyl-1H-benzo[d][1,2,3]triazol-5-yl)-2,2-dimethylpropanamido)acetate]", "EC50": "10 to 100"}, {"compound": "CC[C@@H]1CN(Cc2cc([C@@H](c3ccc4c(nnn4CC)c3C)C(C)(C)C(=O)NCCC(=O)O)ccc2C)S(=O)(=O)c2ccccc2O1", "note": "[Example 201, 3-((S)-3-(3-(((R)-4-ethyl-1,1-dioxido-3,4-dihydro-2H-benzo[b][1,4,5]oxathiazepin-2-yl)methyl)-4-methylphenyl)-3-(1-ethyl-4-methyl-1H-benzo[d][1,2,3]triazol-5-yl)-2,2-dimethylpropanamido)propanoic acid]", "EC50": "100 to 1000"}, {"compound": "CC[C@@H]1CN(Cc2cc([C@@H](c3ccc4c(nnn4CC)c3C)C(C)(C)C(=O)NC(CC(=O)O)C(=O)O)ccc2C)S(=O)(=O)c2ccccc2O1", "note": "(stereo partly drawn) [Example 202, 2-((S)-3-(3-(((R)-4-ethyl-1,1-dioxido-3,4-dihydro-2H-benzo[b][1,4,5]oxathiazepin-2-yl)methyl)-4-methylphenyl)-3-(1-ethyl-4-methyl-1H-benzo[d][1,2,3]triazol-5-yl)-2,2-dimethylpropanamido)succinic acid]", "EC50": "1 to 10"}, {"compound": "CC[C@@H]1CN(Cc2cc([C@@H](c3ccc4c(nnn4CC)c3C)C(C)(C)C(=O)NC(CC(=O)O)CC(=O)O)ccc2C)S(=O)(=O)c2ccccc2O1", "note": "[Example 203, 3-((S)-3-(3-(((R)-4-ethyl-1,1-dioxido-3,4-dihydro-2H-benzo[b][1,4,5]oxathiazepin-2-yl)methyl)-4-methylphenyl)-3-(1-ethyl-4-methyl-1H-benzo[d][1,2,3]triazol-5-yl)-2,2-dimethylpropanamido)pentanedioic acid]", "EC50": "1000 to 10000"}, {"compound": "CC[C@@H]1CN(Cc2cc([C@@H](c3ccc4c(nnn4CC)c3C)C(C)(C)C(=O)NC(CC(=O)O)c3ccncc3)ccc2C)S(=O)(=O)c2ccccc2O1", "note": "(stereo partly drawn) [Example 204, 3-((S)-3-(3-(((R)-4-ethyl-1,1-dioxido-3,4-dihydro-2H-benzo[b][1,4,5]oxathiazepin-2-yl)methyl)-4-methylphenyl)-3-(1-ethyl-4-methyl-1H-benzo[d][1,2,3]triazol-5-yl)-2,2-dimethylpropanamido)-3-(pyridin-4-yl)propanoic acid]", "EC50": "100 to 1000"}, {"compound": "CC[C@@H]1CN(Cc2cc([C@@H](c3ccc4c(nnn4CC)c3C)C(C)(C)C(=O)NC(C)C(=O)O)ccc2C)S(=O)(=O)c2ccccc2O1", "note": "(stereo partly drawn) [Example 205, 2-((S)-3-(3-(((R)-4-ethyl-1,1-dioxido-3,4-dihydro-2H-benzo[b][1,4,5]oxathiazepin-2-yl)methyl)-4-methylphenyl)-3-(1-ethyl-4-methyl-1H-benzo[d][1,2,3]triazol-5-yl)-2,2-dimethylpropanamido)propanoic acid]", "EC50": "100 to 1000"}, {"compound": "CC[C@@H]1CN(Cc2cc([C@@H](c3ccc4c(nnn4CC)c3C)C(C)(C)C(=O)NCCC(F)(F)F)ccc2C)S(=O)(=O)c2ccccc2O1", "note": "[Example 206, (S)-3-(3-(((R)-4-ethyl-1,1-dioxido-3,4-dihydro-2H-benzo[b][1,4,5]oxathiazepin-2-yl)methyl)-4-methylphenyl)-3-(1-ethyl-4-methyl-1H-benzo[d][1,2,3]triazol-5-yl)-2,2-dimethyl-N-(3,3,3-trifluoropropyl)propanamide]", "EC50": "10 to 100"}, {"compound": "CC[C@@H]1CN(Cc2cc([C@@H](c3ccc4c(nnn4CC)c3C)C(C)(C)C(=O)NC(C)(C)C(=O)O)ccc2C)S(=O)(=O)c2ccccc2O1", "note": "[Example 207, 2-((S)-3-(3-(((R)-4-ethyl-1,1-dioxido-3,4-dihydro-2H-benzo[b][1,4,5]oxathiazepin-2-yl)methyl)-4-methylphenyl)-3-(1-ethyl-4-methyl-1H-benzo[d][1,2,3]triazol-5-yl)-2,2-dimethylpropanamido)-2-methylpropanoic acid]", "EC50": "100 to 1000"}, {"compound": "CC[C@@H]1CN(Cc2cc([C@@H](c3ccc4c(nnn4CC)c3C)C(C)(C)C(=O)NCC(N)=O)ccc2C)S(=O)(=O)c2ccccc2O1", "note": "[Example 208, (S)-N-(2-amino-2-oxoethyl)-3-(3-(((R)-4-ethyl-1,1-dioxido-3,4-dihydro-2H-benzo[b][1,4,5]oxathiazepin-2-yl)methyl)-4-methylphenyl)-3-(1-ethyl-4-methyl-1H-benzo[d][1,2,3]triazol-5-yl)-2,2-dimethylpropanamide]", "EC50": "10 to 100"}, {"compound": "CC[C@@H]1CN(Cc2cc([C@@H](c3ccc4c(nnn4CC)c3C)C(C)(C)C(=O)N[C@@H](CCC(=O)O)C(=O)O)ccc2C)S(=O)(=O)c2ccccc2O1", "note": "[Example 209, (S)-2-((S)-3-(3-(((R)-4-ethyl-1,1-dioxido-3,4-dihydro-2H-benzo[b][1,4,5]oxathiazepin-2-yl)methyl)-4-methylphenyl)-3-(1-ethyl-4-methyl-1H-benzo[d][1,2,3]triazol-5-yl)-2,2-dimethylpropanamido)pentanedioic acid]", "EC50": "1000 to 10000"}, {"compound": "CC[C@@H]1CN(Cc2cc([C@@H](c3ccc4c(nnn4CC)c3C)C(C)(C)C(=O)N[C@H](CCC(=O)O)C(=O)O)ccc2C)S(=O)(=O)c2ccccc2O1", "note": "[Example 210, (R)-2-((S)-3-(3-(((R)-4-ethyl-1,1-dioxido-3,4-dihydro-2H-benzo[b][1,4,5]oxathiazepin-2-yl)methyl)-4-methylphenyl)-3-(1-ethyl-4-methyl-1H-benzo[d][1,2,3]triazol-5-yl)-2,2-dimethylpropanamido)pentanedioic acid]", "EC50": "100 to 1000"}, {"compound": "CC[C@@H]1CN(Cc2cc([C@@H](c3ccc4c(nnn4CC)c3C)C(C)(C)C(=O)N[C@@H](CC(N)=O)C(=O)O)ccc2C)S(=O)(=O)c2ccccc2O1", "note": "[Example 211, (S)-4-amino-2-((S)-3-(3-(((R)-4-ethyl-1,1-dioxido-3,4-dihydro-2H-benzo[b][1,4,5]oxathiazepin-2-yl)methyl)-4-methylphenyl)-3-(1-ethyl-4-methyl-1H-benzo[d][1,2,3]triazol-5-yl)-2,2-dimethylpropanamido)-4-oxobutanoic acid]", "EC50": "1000 to 10000"}, {"compound": "CC[C@@H]1CN(Cc2cc([C@@H](c3ccc4c(nnn4CC)c3C)C(C)(C)C(=O)N[C@H](CC(N)=O)C(=O)O)ccc2C)S(=O)(=O)c2ccccc2O1", "note": "[Example 212, (R)-4-amino-2-((S)-3-(3-(((R)-4-ethyl-1,1-dioxido-3,4-dihydro-2H-benzo[b][1,4,5]oxathiazepin-2-yl)methyl)-4-methylphenyl)-3-(1-ethyl-4-methyl-1H-benzo[d][1,2,3]triazol-5-yl)-2,2-dimethylpropanamido)-4-oxobutanoic acid]", "EC50": "100 to 1000"}, {"compound": "CC[C@@H]1CN(Cc2cc([C@@H](c3ccc4c(nnn4CC)c3C)C(C)(C)C(=O)N(CCC(=O)O)CC(=O)O)ccc2C)S(=O)(=O)c2ccccc2O1", "note": "[Example 213, 3-((S)-N-(carboxymethyl)-3-(3-(((R)-4-ethyl-1,1-dioxido-3,4-dihydro-2H-benzo[b][1,4,5]oxathiazepin-2-yl)methyl)-4-methylphenyl)-3-(1-ethyl-4-methyl-1H-benzo[d][1,2,3]triazol-5-yl)-2,2-dimethylpropanamido)propanoic acid]", "EC50": "10 to 100"}]}, {"test_system": "rats", "experiment": "not given", "settings": "rats on a choline-deficient L-amino acid-defined diet; cited from earlier work", "values": [{"compound": "O=C(NCc1ccccn1)Nc1nnc(-c2ccco2)o1", "note": "[NK-252]", "progression of histologic abnormalities, especially hepatic fibrosis": "significantly attenuated"}, {"compound": "Cc1c(-c2cnccn2)ssc1=S", "note": "[oltipraz]", "progression of histologic abnormalities, especially hepatic fibrosis": "significantly attenuated"}]}]}
